Results taken from ChEMBL document CHEMBL1201862, “PubChem BioAssay data set” (2004).
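1) Cells in 96-well plates. 2) Compound, 48 h, 5 concentrations. 3) Linear interpolation between surrounding doses. 4) Unreached endpoint = highest concentration. Abbreviation: GI50, concentration required for 50% inhibition of growth.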 Calls of active or inactive are those of the source. Cut-off read from the data, not from the text of the source: active = GI50 up to about 1.1 µM and inactive = higher.

Tests used:
Assay in all cases: NCI-60 cell line screen, 48 h
IGROV-1 = test system: IGROV-1
SK-MEL-2 = test system: SK-MEL-2
SR = test system: SR
A498 = test system: A498
SN12C = test system: SN12C
SK-MEL-28 = test system: SK-MEL-28
SK-OV-3 = test system: SK-OV-3
Malme-3M = test system: Malme-3M
LOX IMVI = test system: LOX IMVI
SF-539 = test system: SF-539
A549 = test system: A549
SNB-19 = test system: SNB-19
EKVX = test system: EKVX
U-251 = test system: U-251
SF-295 = test system: SF-295
786-0 = test system: 786-0
T47D = test system: T47D
DU-145 = test system: DU-145
PC-3 = test system: PC-3
MDA-N = test system: MDA-N

Measured: GI50

CCN(CC)CCN(C)CC(C)(C)C(=O)/C=C/c1ccccc1
inactive: IGROV-1 16.7 µM | SK-MEL-2 11.7 µM | SR 10.5 µM | A498 4.11 µM | SN12C 10 µM | SK-MEL-28 16 µM | SK-OV-3 12.6 µM | Malme-3M 13.4 µM | LOX IMVI 11 µM | SF-539 5.01 µM | A549 16.4 µM | SNB-19 15.1 µM | EKVX 13.1 µM | U-251 10.4 µM | SF-295 15 µM | 786-0 15.8 µM

CC1(C)OC2OC(/C=C/[N+](=O)[O-])C3OC(C)(C)OC3C2O1 (centres undefined)
inactive: IGROV-1 34.9 µM | SK-MEL-2 18.2 µM | SR 6.7 µM | A498 20.5 µM | SN12C 15.6 µM | SK-MEL-28 18.2 µM | SK-OV-3 20.6 µM | Malme-3M 5.35 µM | LOX IMVI 7.5 µM | SF-539 13.6 µM | A549 20.3 µM | SNB-19 18.5 µM | EKVX 20.1 µM | U-251 17.3 µM | SF-295 19.5 µM | 786-0 13.8 µM

COC(=O)CC[N+]1([O-])CC1
inactive: IGROV-1 > 100 µM | SR > 100 µM | T47D > 100 µM | A498 33.2 µM | SN12C > 100 µM | SK-MEL-28 > 100 µM | SK-OV-3 > 100 µM | Malme-3M > 100 µM | DU-145 > 100 µM | LOX IMVI > 100 µM | SF-539 > 100 µM | A549 > 100 µM | SNB-19 > 100 µM | EKVX > 100 µM | U-251 > 100 µM | SF-295 > 100 µM | 786-0 > 100 µM

COc1c(C)c2c(c3c1c(=O)c1ccccc1n3C)C=CC(C)(C)O2
inactive: IGROV-1 30.3 µM | SK-MEL-2 25 µM | SR 12.5 µM | A498 32.7 µM | SN12C 30.2 µM | SK-MEL-28 22 µM | SK-OV-3 12.7 µM | Malme-3M 25.8 µM | LOX IMVI 15.2 µM | SF-539 19.3 µM | A549 5.41 µM | SNB-19 41.3 µM | EKVX 47.1 µM | U-251 21.8 µM | SF-295 17.9 µM | 786-0 23.4 µM

O=C(O)CCC(=O)OCN1C(=O)C2C3C=CC(C2C1=O)C1C2C(=O)N(COC(=O)CCC(=O)O)C(=O)C2C31 (centres undefined)
inactive: IGROV-1 > 100 µM | SK-MEL-2 > 100 µM | SR 30.8 µM | A498 > 100 µM | SN12C > 86.5 µM | SK-MEL-28 > 100 µM | SK-OV-3 > 100 µM | Malme-3M > 100 µM | LOX IMVI > 45.5 µM | SF-539 > 100 µM | A549 > 100 µM | SNB-19 > 100 µM | EKVX > 100 µM | U-251 > 65.8 µM | SF-295 > 100 µM | 786-0 > 62.7 µM

N#CCCN(CCC#N)c1ccc(C(Sc2ccccc2)C(NC(=O)c2cc([N+](=O)[O-])ccc2Cl)C(=O)Sc2ccccc2)cc1 (centres undefined)
inactive: IGROV-1 1.92 µM | SK-MEL-2 2.3 µM | SR 1.51 µM | A498 2.15 µM | SN12C 1.88 µM | SK-MEL-28 1.96 µM | SK-OV-3 5.42 µM | Malme-3M 7.33 µM | LOX IMVI 1.91 µM | SF-539 1.8 µM | A549 2.88 µM | SNB-19 3.54 µM | EKVX 1.34 µM | U-251 1.23 µM | SF-295 3.37 µM | 786-0 1.89 µM

CCOC(=O)C1=C(C)NC(=O)NC1c1coc2cc(C)cc(C)c2c1=O (centres undefined)
inactive: IGROV-1 > 60.1 µM | SK-MEL-2 > 43.8 µM | SR 10.2 µM | T47D > 69.5 µM | A498 > 100 µM | SN12C 58.2 µM | SK-MEL-28 > 100 µM | SK-OV-3 > 66.5 µM | PC-3 48.3 µM | Malme-3M 13 µM | DU-145 > 100 µM | LOX IMVI 69.2 µM | SF-539 75.9 µM | A549 46.9 µM | SNB-19 90.2 µM | EKVX 31.6 µM | U-251 32.1 µM | SF-295 47.6 µM | 786-0 67.9 µM

COc1cccc(N2C(=O)c3c(c4[nH]c5ccccc5c4c4ccc(C(C)(C)C)cc34)C2=O)c1
inactive: IGROV-1 > 100 µM | SK-MEL-2 > 100 µM | SR > 100 µM | A498 > 100 µM | SN12C > 100 µM | SK-MEL-28 > 100 µM | SK-OV-3 > 100 µM | Malme-3M > 100 µM | LOX IMVI > 100 µM | SF-539 > 100 µM | A549 > 100 µM | SNB-19 > 100 µM | EKVX > 100 µM | U-251 > 100 µM | SF-295 > 100 µM | 786-0 > 100 µM

N#Cc1c(-c2ccc(Cl)cc2)c(C#N)c(=O)n(NS(=O)(=O)c2ccccc2)c1-c1ccccc1
inactive: MDA-N > 25 µM | SK-MEL-2 > 25 µM | A498 > 25 µM | SN12C > 25 µM | SK-MEL-28 > 25 µM | SK-OV-3 > 25 µM | PC-3 > 25 µM | LOX IMVI > 25 µM | SF-539 > 25 µM | A549 > 25 µM | SNB-19 > 25 µM | U-251 > 25 µM | SF-295 > 25 µM | 786-0 > 25 µM

Cc1ccc(S(=O)(=O)OI(O)CC(F)(F)F)cc1
inactive: IGROV-1 > 100 µM | SK-MEL-2 > 100 µM | SR > 100 µM | T47D > 100 µM | A498 > 100 µM | SN12C > 100 µM | SK-MEL-28 > 100 µM | SK-OV-3 > 100 µM | PC-3 > 100 µM | DU-145 > 100 µM | LOX IMVI > 100 µM | SF-539 > 100 µM | A549 > 100 µM | EKVX > 100 µM | U-251 > 100 µM | SF-295 > 100 µM | 786-0 > 100 µM

COc1ccc(C(=O)O)c(Cc2ccc3ccccc3c2)c1
inactive: IGROV-1 > 100 µM | SK-MEL-2 > 100 µM | SR > 100 µM | A498 > 100 µM | SN12C > 100 µM | SK-MEL-28 > 100 µM | SK-OV-3 > 100 µM | Malme-3M > 100 µM | LOX IMVI > 100 µM | SF-539 > 100 µM | A549 > 100 µM | SNB-19 > 100 µM | EKVX > 100 µM | U-251 > 100 µM | SF-295 > 100 µM | 786-0 > 100 µM

COc1ccc(C(C)Nc2cc(OC)c(OC)c(OC)c2)cc1 (centres undefined)
inactive: IGROV-1 7.13 µM | SK-MEL-2 3.01 µM | SR 3.1 µM | A498 4.45 µM | SN12C 7.71 µM | SK-MEL-28 3.24 µM | SK-OV-3 4.4 µM | Malme-3M 3.68 µM | LOX IMVI 10.9 µM | SF-539 3.1 µM | A549 5.62 µM | SNB-19 > 25.2 µM | EKVX > 24.9 µM | U-251 2.75 µM | SF-295 2.3 µM | 786-0 6.65 µM

O=C(O)CNc1ccc2c(c1)Cc1cc(Br)ccc1-2
inactive: IGROV-1 18 µM | SK-MEL-2 26 µM | T47D 20.4 µM | A498 22 µM | SN12C 22.7 µM | SK-MEL-28 31.3 µM | SK-OV-3 26.5 µM | PC-3 27.2 µM | Malme-3M 20.6 µM | DU-145 25.9 µM | LOX IMVI 26.6 µM | SF-539 23.7 µM | A549 21.3 µM | SNB-19 24.3 µM | EKVX 5.2 µM | U-251 26.6 µM | SF-295 24.5 µM | 786-0 39.6 µM

O=C(CCc1cc(-c2ccc(F)cc2)n[nH]1)N(Cc1ccccc1)Cc1ccccc1
inactive: IGROV-1 > 100 µM | SK-MEL-2 > 100 µM | SR 13.8 µM | A498 > 100 µM | SN12C > 100 µM | SK-MEL-28 > 100 µM | SK-OV-3 > 100 µM | Malme-3M > 100 µM | LOX IMVI > 100 µM | SF-539 > 100 µM | A549 > 100 µM | SNB-19 > 100 µM | EKVX > 100 µM | U-251 > 100 µM | SF-295 > 100 µM | 786-0 > 100 µM

CS/C(C#N)=C(\C#N)SC
inactive: IGROV-1 6.25 µM | SK-MEL-2 12.4 µM | SR 1.24 µM | T47D 4.19 µM | A498 23 µM | SN12C 11.2 µM | SK-MEL-28 10.7 µM | PC-3 15.2 µM | Malme-3M 11.4 µM | DU-145 13.6 µM | LOX IMVI 2.5 µM | SF-539 9.64 µM | A549 30.4 µM | SNB-19 25.7 µM | EKVX 19 µM | U-251 4.45 µM | SF-295 18.5 µM | 786-0 4.89 µM

N#C[C@](CO)(NC(=O)OCc1ccccc1)C(F)F
inactive: IGROV-1 > 100 µM | SK-MEL-2 > 100 µM | SR > 100 µM | T47D > 100 µM | A498 > 100 µM | SK-MEL-28 > 100 µM | SK-OV-3 > 100 µM | PC-3 > 100 µM | Malme-3M > 100 µM | DU-145 > 100 µM | LOX IMVI > 100 µM | A549 > 100 µM | SNB-19 > 100 µM | EKVX > 100 µM | U-251 > 100 µM | SF-295 > 100 µM | 786-0 > 100 µM
